Assay results from patent publication US8859615B2, “Compounds, compositions and methods for reducing toxicity and treating or preventing diseases” (priority 2008, dated 2014).
Where two headings read alike, the source gives them in different places.

Legend:
[1] = system: AKR1C2 and AKR1C3 in human neuroblastoma IMR-32 cells; assay: Induction of AKR1C enzymes, coumberone metabolism (Tables 12, 13); settings: for Fold induction of AKR1C2 and AKR1C3 in IMR-32 cells (result in words): inducer varied from 50 nM to 60 μM
Protocol: (§1) Compounds were screened for AKR1C enzyme activity as set forth in Halim, M.; Yee, D. J. and Sames, D. J. Am. Chem. Soc. 2008, […], 14123-14128. […] Specifically, coumberone metabolism studies in IMR-32 can be done as follows: Early-passage (<P25) IMR-32 cells were seeded at a density of 4×10^4 cells/well in 96-well dish. They were then treated with the various inducers or DMSO vehicle (0.5% v/v) control. The concentration of each inducer was varied from 50 nM to 60 μM and the cells were incubated with these for either 24 or 48 hours. 72 hours after seeding, the media was removed and 100 μL of experimental media (DMEM without phenol red supplemented with 100 units/ml penicillin, 100 μg/ml streptomycin, 4 mM L-glutamine and 1% charcoal-dextran treated FBS) was added and incubated for 2 hrs. 100 μl more of the experimental media containing Coumberone (final concentration of 5 μM) was then added. The fluorescence of the cell culture medium was recorded on a plate reader MicroMax 384 connected to a Jobin Yvon Fluorolog by detecting fluorescence at 510 nm upon excitation at 385 nm. The reading was taken every 6 hours for 72 hours. Metabolic conversion rate was obtained by measuring the change in fluorescence per hour for the first 36 hours. The relative increase in metabolic rate was calculated by dividing the metabolic conversion rates of cells incubated with the activator compounds with those incubated with DMSO vehicle. […] Fold-induction is the increase metabolic activity of the reporter. […] “None” indicates no observed induction.
The IMR-32 induction assay was run as follows. Early-passage (<P25) IMR-32 cells were seeded at a density of 4×10^4 cells/well in 96-well dish. They were then treated with the various inducers or DMSO vehicle (0.5% v/v) control. The concentration of each inducer was varied from 50 nM to 60 μM and the cells were incubated with these for either 24 or 48 hours. 72 hours after seeding, the media was removed and 100 μL of experimental media (DMEM without phenol red supplemented with 100 units/ml penicillin, 100 μg/ml streptomycin, 4 mM L-glutamine and 1% charcoal-dextran treated FBS) was added and incubated for 2 hrs. 100 μl more of the experimental media containing Coumberone (final concentration of 5 μM) was then added. The fluorescence of the cell culture medium was recorded on a plate reader MicroMax 384 connected to a Jobin Yvon Fluorolog by detecting fluorescence at 510 nm upon excitation at 385 nm. The reading was taken every 6 hours for 72 hours. Metabolic conversion rate was obtained by measuring the change in fluorescence per hour for the first 36 hours. The relative increase in metabolic rate was calculated by dividing the metabolic conversion rates of cells incubated with the activator compounds with those incubated with DMSO vehicle. […] J. Am. Chem. Soc. 2008, 130, 14123-[…].

[2] = system: human neuroblastoma IMR-32 cells; assay: 50% toxicity in the IMR-32 induction assay (Table 12); format: cell-based
Protocol: as §1

[3] = system: CCRF-CEM human T-cell acute lymphoblastic leukemia cells; assay: In vitro cytotoxicity against CCRF-CEM (XTT / CCK-8 tetrazolium assay, 72 hr); settings: Homo sapiens, CCRF-CEM, read-out: IC50 (μM) CCRF-CEM
Protocol: The cytotoxicity IC50 of each compound was measured with the XTT assay using the 2,3-bis(2-methoxy-4-nitro-5-sulfophenyl)-5-[(phenylamino)carbonyl]-2H-tetrazolium hydroxide (XTT) microculture method as described in Scudiero et al., Cancer Res., 48:4827 (1988), the contents of which are hereby incorporated by reference in their entirety. The CCK-8 assay is a cell counting kit-8 (CCK-8) tetrazolium assay using a 96-well microplate (Dojindo Molecular Technologies, Inc., Rockville, Md.) (M. Ishiyama et al., Biol. Pharm. Bull. 19: 1518, 1996). Absorbance was measured by Powerwave a XS microplate spectrophotometer. This method described is considered a general method in vitro cytotoxicity studies.
The data in Tables 2X, 3A-E, 4, 5, and 6 were obtained using the cell counting kit-8 (CCK-8) tetrazolium assay in a 96-well microplate. Five to seven concentrations of each compound in triplicate were used, and the IC50 values were determined by CompuSyn software automation (Chou T C. and Martin N. ComboSyn, Inc., 2006) based on the median-effect equation and plot (Chou T C. J. Theor. Biol. 59:235-276, 1976; Chou T C. Pharmacol. Rev. 58: 621-681, 2006). […] The r value defines the correlation coefficient of the median-effect plot which signifies the conformity to the mass-action law principle (Chou T C. J. Theor. Biol. 59:235-276, 1976; Chou T C. Pharmacol. Rev. 58:621-681, 2006). These parameters were determined by CompuSyn simulation (available at http://www.combosyn.com).
CCRF-CEM human T-cell acute lymphoblastic leukemia cells and the corresponding vinblastine-resistant cells (CCRF-CEM/VBL100) were cultured at an initial density of 5×10^4 cells per milliliter. The cultured cells were maintained in a 5% CO2-humidified atmosphere at 37° C. in RPMI medium 1640 (GIBCO/BRL) containing penicillin (100 units/mL), streptomycin (100 μg/mL, GIBCO/BRL), and 10% heat-inactivated fetal bovine serum. The cytotoxicity of each Compound of the invention was measured using the 2,3-bis(2-methoxy-4-nitro-5-sulfophenyl)-5-[(phenylamino)carbonyl]-2H-tetrazolium hydroxide (XTT) microculture method as described in Scudiero et al., Cancer Res., 48:4827 (1988), the contents of which are hereby incorporated by reference in their entirety.
Absorbance was measured by Powerwave XS microplate spectrophotometer.

[4] = Homo sapiens, IMR-32, read-out: 50% toxicity in IMR-32 cells
[5] = Homo sapiens, IMR-32, read-out: Fold induction of AKR1C2 and AKR1C3 in IMR-32 cells
[6] = Homo sapiens, IMR-32; read-out: 50% toxicity in IMR-32 cells
[7] = Homo sapiens, IMR-32, sub-head printed inside Table 13 r22; read-out: IC50 (μM) IMR-32

Row | Structure (SMILES) | Fold induction of AKR1C2 and AKR1C3 in IMR-32 cells (result in words) [1] | IC50 [2, 6] [µM] | also measured
1 | CCCCCCC[C@@H](O)[C@H](O)CC#CC#C[C@H](O)c1ccccc1 | None | – | IC50 ([2]; listed as 19; read-out: 50% toxicity in IMR-32 cells): > 40 µM
2 | CCCCCCC[C@@H](O)[C@H](O)CC#CC#CCO | – | – | IC50 [3]: 5.57 µM
3 | CC12COC3(O)C4O[C@H]5CCC1(O)C45CC(O)C32C (mixture of isomers) [Compound 33] | None | – | IC50 [2, 4]: > 40 µM
4 | C=C[C@@H](O)C#CC#CC[C@@H](O)[C@H](O)CCCCCCC [Compound 1] | – | – | fold induction at 20 µM [1, 5]: 2; IC50 [2, 4]: > 40 µM
5 | C=C[C@H](C#CC#CC[C@H]1OC(C)(C)O[C@@H]1CCCCCCC)OC(C)=O [Compound 4] | – | > 40 | fold induction at 20 µM [1, 5]: 1.5
6 | CCCCCCC[C@H]1OC(C)(C)O[C@@H]1CC#CC#CC(=O)CC [Compound 5] | None | – | –
7 | C=CC(=O)C#CC#CC[C@H]1OC(C)(C)O[C@@H]1CCCCCCC [Compound 6] | None | – | –
8 | C=C[C@H](C#CC#CC[C@H]1OC(C)(C)O[C@@H]1CCCCCCC)OC [Compound 7] | None | – | –
9 | CCCCCCC[C@H]1OC(C)(C)O[C@@H]1CC#CC(O)CC (some centres unmarked) [Compound 10] | None | ~25 | –
10 | CCCCCCC[C@H]1OC(C)(C)O[C@@H]1Cc1nnn(Cc2ccccc2)c1C(O)CC (some centres unmarked) [Compound 11] | None | ~35 | –
11 | CCCCCCC[C@H]1OC(C)(C)O[C@@H]1Cc1c[nH]nn1 [Compound 12] | None | ~35 | –
12 | CCCCCCC[C@H]1OC(C)(C)O[C@@H]1Cc1ccc(C=O)cc1 [Compound 13] | None | ~30 | –
13 | CCCCCCC[C@H]1OC(C)(C)O[C@@H]1Cc1ccc(C(O)CC)cc1 (some centres unmarked) [Compound 14] | None | ~40 | –
14 | C=CC(O)c1ccc(C[C@H]2OC(C)(C)O[C@@H]2CCCCCCC)cc1 (some centres unmarked) [Compound 15] | None | ~40 | –
15 | C=C[C@H](O)C#CC#CC[C@H](O)[C@@H](O)CCCCCCC [Compound 16] | – | – | EC50 ([1]; Homo sapiens, IMR-32, read-out: EC50 of induction of AKR1C2 and AKR1C3 in IMR-32 cells): ~3.5 µM; fold induction at 5 µM [1, 5]: 2.3; IC50 [2, 4]: ~12 µM
16 | C=C[C@H](O)C#CC#CC[C@@H]1OC(C)(C)O[C@H]1CCCCCCC [Compound 17] | – | ~5 | –
17 | O=C1NC2(CCCCC2)C(=O)N2CCC[C@@H]12 [Compound 26] | None | – | –
18 | C[C@@]12COC(=O)[C@]1(C)[C@@H]1O[C@]3(C)[C@@H](O)C[C@]24OC(=O)CC134 (some centres unmarked) [Compound 31] | None | – | IC50 [2, 4]: > 40 µM

Row | Structure (SMILES) | Fold induction of AKR1C2 and AKR1C3 in IMR-32 cells (result in words) [1] | IC50 [2, 6] [µM] | also measured
19 | C[C@]12COC(=O)[C@@]1(C)[C@H]1O[C@@]3(C)[C@H](O)C[C@@]24OC(=O)CC134 (some centres unmarked) [Compound 32] | None | – | IC50 [2, 4]: > 40 µM
20 | CC1=C[C@@H]2OC[C@@H]3C[C@@]4(O)C[C@]3(C)[C@]2(CC1)CO4 [Compound 34] | None | – | IC50 [2, 4]: > 40 µM
21 | C=C1CO[C@H]2[C@@H]3C(=O)C[C@@H](C(C)C)[C@]3(C)C[C@H]3OC(=O)C[C@@]3(C)[C@@]12O [Compound 35] | None | > 50 | –
22 | CCCCCCC[C@H]1OC(C)(C)O[C@@H]1CC#CC#C[C@H](O)c1ccccc1 [Example 20] | None | ~10 | –
23 | C=C[C@H](O)C#CC#CC[C@H]1OC(C)(C)O[C@@H]1CCCCCCC [Example 21] | – | ~4 | fold induction at 1 µM [1, 5]: 1.4
24 | C=C[C@@](C)(O)C#CC#CC[C@H]1OC(C)(C)O[C@@H]1CCCCCCC [analog 8] | None | – | –
25 | CCCCCCC[C@H]1OC(C)(C)O[C@@H]1CC#CC#C/C=C/CO [analog 9] | None | – | –
26 | C=C[C@H](O)C#CC#CC[C@H](O)[C@@H](O)CCCCCCC [drawing 241] | – | – | IC50 [3]: 2.69 µM
27 | CCCCCCC[C@@H](O)[C@H](O)CC#CC#CC(O)/C=C/c1ccccc1 (some centres unmarked) [drawing 243] | – | – | IC50 [3]: 9.46 µM
28 | CCCCCCC[C@@H](O)[C@H](O)CC#CC#C[C@H](O)c1ccccc1 [drawing 244] | – | – | IC50 [3]: 5.96 µM
29 | CCCCCCC[C@H]1OC(C)(C)O[C@@H]1CC#CC#C[C@H](O)c1ccccc1 [drawing 245] | – | – | IC50 [3]: 2.49 µM
30 | CCCCCCC[C@H]1OC(C)(C)O[C@@H]1Cc1ccc(C=O)cc1 [drawing 246] | – | – | IC50 [3]: 12.6 µM
31 | C=CC(O)c1ccc(C[C@H]2OC(C)(C)O[C@@H]2CCCCCCC)cc1 (some centres unmarked) [drawing 247] | – | – | IC50 [3]: 5.25 µM
32 | CCCCCCC[C@H]1OC(C)(C)O[C@@H]1Cc1ccc(C(O)CC)cc1 (some centres unmarked) [drawing 248] | – | – | IC50 [3]: 4.18 µM
33 | CCCCCCC[C@H]1OC(C)(C)O[C@@H]1Cc1nnn(Cc2ccccc2)c1C(O)CC (some centres unmarked) [drawing 249] | – | – | IC50 [2, 7]: 35 µM
34 | CCCCCCC[C@H]1OC(C)(C)O[C@@H]1Cc1c[nH]nn1 [drawing 250] | – | – | IC50 [2, 7]: 35 µM
35 | CCCCCCC[C@H]1OC(C)(C)O[C@@H]1CC#CC(O)CC (some centres unmarked) [drawing 251] | – | – | IC50 [2, 7]: 25 µM
